From ChEMBL document CHEMBL1149375, “Design and synthesis of dipeptidyl glutaminyl fluoromethyl ketones as potent severe acute respiratory syndrome coronovirus (SARS-CoV) inhibitors” (J Med Chem, 2006)
Square brackets hold non-standard residues; d marks the D form. Peptide text beside a SMILES is read from it. * marks the point of attachment. ξ: configuration not given here. Ile(3ξ) = CCC(C)[C@H](N)C(=O)O; ξE = NC(CCC(=O)O)C(=O)O; Cbz = O=C(OCc1ccccc1)*; CH2F = FC*

Assays:
[1] = test system: Vero; assay: Cytotoxicity against Vero (CCL81) cells; type: functional; conditions: Chlorocebus sabaeus
[2] = test system: SARS-CoV; assay: Inhibitory activity against SARS coronavirus FFMI replication in vero (CCL81) cells; type: functional, organism-based; conditions: Severe acute respiratory syndrome-related coronavirus
[3] = test system: SARS-CoV; assay: Inhibitory activity against SARS coronavirus 6109 replication in vero (CCL81) cells; type: functional, organism-based; conditions: Severe acute respiratory syndrome-related coronavirus
[4] = test system: SARS-CoV; assay: Inhibitory activity against SARS coronavirus FFMI replication in Caco-2 cells; type: functional, organism-based; conditions: Severe acute respiratory syndrome-related coronavirus
[5] = test system: Vero; assay: Selectivity index (CC50/EC50) in SARS coronavirus 6109 infected Vero cells; type: functional, Chlorocebus sabaeus
[6] = test system: rhinovirus A2; assay: Antiviral activity against Human rhinovirus 2 in a cell based assay; type: functional, organism-based

| SMILES | CC50 [1] | EC50 [2] | EC50 [3] | EC50 [4] | Selectivity index [5] | EC50 [6] |
| --- | --- | --- | --- | --- | --- | --- |
| CC(C)[C@H](NC(=O)OCc1ccccc1)C(=O)NC(CC(=O)O)C(=O)CF (stereo not given in full) | > 100 µM | > 100 µM | > 100 µM | > 100 µM |  |  |
| C[C@H](NC(=O)OCc1ccccc1)C(=O)NC(CCC(=O)N(C)C)C(=O)CF (stereo partly drawn) (Cbz-Ala-[ξE](NMe2)-CH2F) | > 100 µM | > 100 µM | > 100 µM | > 100 µM |  |  |
| CN(C)C(=O)CCC(NC(=O)CNC(=O)OCc1ccccc1)C(=O)CF (stereo not drawn) (Cbz-Gly-[ξE](NMe2)-CH2F) | > 100 µM | > 100 µM | > 100 µM | > 100 µM |  |  |
| CC(C)C[C@H](NC(=O)OCc1ccccc1)C(=O)NC(CCC(=O)N(C)C)C(=O)CF (stereo partly drawn) (Cbz-Leu-[ξE](NMe2)-CH2F) | > 100 µM | 3.6 µM | 2.5 µM | 2.4 µM | >40 | > 100 µg/mL |
| CC(C)[C@H](NC(=O)OCc1ccccc1)C(=O)NC(CCC(=O)N(C)C)C(=O)CF (stereo partly drawn) (Cbz-Val-[ξE](NMe2)-CH2F) | > 100 µM | 6.2 µM | 6.6 µM | 12.6 µM | >15 | > 100 µg/mL |
| CCC(C)[C@H](NC(=O)OCc1ccccc1)C(=O)NC(CCC(=O)N(C)C)C(=O)CF (stereo not given in full) (Cbz-[Ile(3ξ)]-[ξE](NMe2)-CH2F) | > 100 µM | 8.9 µM | 5.3 µM | 8.8 µM | >18 | > 100 µg/mL |
